Results as given in article PMC7413254 (Nature Communications, 2020).
Where two headings read alike, the source gives them in different places.

Tests used:
PfCRT [1] = assay: Influx of VF-6 via PfCRT into the oocyte, solutes tested as potential co-substrates; format: cell-based, Plasmodium falciparum; set-up: key: X: Compounds that have been tested as potential co-substrates but are not required for influx of VF-6 via PfCRT into the oocyte; conditions: X marks the solute
PfCRT^Ecu1110 [2] = target: T1, PfCRT^Ecu1110 (Plasmodium falciparum, UniProt Q9N623, A220S/I356L/K76T/N326D); assay: [3H]CQ uptake into Xenopus oocytes, cis-inhibition by unlabelled solute; format: cell-based
T1 sequence (Q9N623 whole entry A220S/I356L/K76T/N326D): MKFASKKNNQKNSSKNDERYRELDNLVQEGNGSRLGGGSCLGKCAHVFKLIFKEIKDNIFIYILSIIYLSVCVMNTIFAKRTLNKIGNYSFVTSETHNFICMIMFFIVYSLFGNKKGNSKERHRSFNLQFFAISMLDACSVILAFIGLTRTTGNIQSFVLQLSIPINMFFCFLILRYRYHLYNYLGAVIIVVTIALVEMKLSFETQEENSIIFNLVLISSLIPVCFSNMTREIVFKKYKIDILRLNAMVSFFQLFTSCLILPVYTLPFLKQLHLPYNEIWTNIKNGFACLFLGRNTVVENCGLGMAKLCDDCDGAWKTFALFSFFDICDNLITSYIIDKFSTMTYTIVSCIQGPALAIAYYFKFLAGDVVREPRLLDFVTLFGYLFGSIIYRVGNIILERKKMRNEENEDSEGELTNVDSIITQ
Summary of the method: (§1)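 Radioactivity accumulated per oocyte, read by liquid scintillation after 10% SDS lysis, served as the uptake measure. Incubations ran 1.5 h at 27.5 °C in ND96 at pH 5.5, matching digestive-vacuole acidity.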

PfCRT^Dd2 = PfCRT^Dd2 (Plasmodium falciparum, UniProt Q9N623, A220S/I356T/K76T/M74I/N326S/N75E/Q271E/R371I); assay: as above; format: cell-based
Chain of PfCRT^Dd2 (Q9N623 whole entry A220S/I356T/K76T/M74I/N326S/N75E/Q271E/R371I): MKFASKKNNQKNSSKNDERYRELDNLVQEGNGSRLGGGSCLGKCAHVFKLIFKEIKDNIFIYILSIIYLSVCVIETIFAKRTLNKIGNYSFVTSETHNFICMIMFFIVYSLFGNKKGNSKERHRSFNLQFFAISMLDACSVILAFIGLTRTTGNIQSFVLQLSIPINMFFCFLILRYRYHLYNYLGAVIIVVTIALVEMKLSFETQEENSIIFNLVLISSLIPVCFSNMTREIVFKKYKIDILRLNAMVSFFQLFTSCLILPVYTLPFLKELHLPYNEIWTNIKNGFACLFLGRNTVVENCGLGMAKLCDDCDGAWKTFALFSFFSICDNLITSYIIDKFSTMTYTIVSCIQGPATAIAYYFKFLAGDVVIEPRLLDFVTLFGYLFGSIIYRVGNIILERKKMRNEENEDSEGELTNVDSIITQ
Summary of the method: as §1

PfCRT [3] = assay: Test of solutes as potential co-substrates for influx of VF-6 via PfCRT into the oocyte; format: cell-based, Plasmodium falciparum; set-up: key: X: Compounds that have been tested as potential co-substrates but are not required for influx of VF-6 via PfCRT into the oocyte; conditions: X = tested
PfCRT^3D7 = PfCRT^3D7 (Plasmodium falciparum, UniProt Q8IBZ9); assay: cell-based; format: cell-based; conditions: total [3H]CQ transport; for inhibition at 500 µM: [test solute] = 0.5 mM; for inhibition at 1000 µM: [test solute] = 1 mM; for inhibition at 2000 µM: [test solute] = 2 mM
Chain of PfCRT^3D7 (Q8IBZ9 59-398): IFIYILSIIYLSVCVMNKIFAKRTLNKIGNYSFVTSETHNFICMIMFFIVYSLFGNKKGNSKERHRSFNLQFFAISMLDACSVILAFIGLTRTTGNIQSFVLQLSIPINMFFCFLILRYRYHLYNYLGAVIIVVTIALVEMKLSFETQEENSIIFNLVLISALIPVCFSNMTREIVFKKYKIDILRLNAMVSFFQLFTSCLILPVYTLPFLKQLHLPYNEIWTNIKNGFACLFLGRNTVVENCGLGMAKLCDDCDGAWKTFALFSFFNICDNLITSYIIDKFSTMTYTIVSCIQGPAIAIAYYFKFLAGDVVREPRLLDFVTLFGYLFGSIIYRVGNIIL
Summary of the method: as §1

PfCRT^Ecu1110 [4] = target: T1, PfCRT^Ecu1110; assay: cell-based; format: cell-based; conditions: […], pH 5.5, read-out: PfCRT-mediated [3H]CQ transport, trans-stimulation (% PfCRTEcu1110 control), [test solute]i = 5 mM (intracellular); PfCRTEcu1110 oocytes; normalised to oocyte type control
Summary of the method: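 Transport measured in Xenopus oocytes expressing the transporters, 1.5 h at 27.5 °C in ND96 pH 5.5 unless noted. For trans-stimulation, VF-6 injected in 25 nL ND96 at pH 5.0–7.0 or Na^+-free (choline) buffer; intracellular levels based on ~400 nL oocyte volume. Ten oocytes per treatment, ≥4 experiments.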

[5] = read-out: PfCRT-mediated [3H]CQ transport, cis-inhibition (% PfCRTEcu1110 control)
[6] = read-out: Uptake of [3H]CQ (% PfCRTDd2 control), cis-inhibition, PfCRTEcu1110, SEM
[7] = read-out: Uptake of [3H]CQ (% PfCRTEcu1110 control), cis-inhibition
[8] = read-out: [3H]CQ transport (% PfCRTEcu1110 control), cis-inhibition, PfCRTEcu1110, SEM
[9] = read-out: PfCRT-mediated [3H]CQ transport, cis-inhibition (% PfCRTDd2 control)
[10] = read-out: Uptake of [3H]CQ (% PfCRTDd2 control), cis-inhibition
[11] = read-out: Uptake of [3H]CQ (% PfCRTDd2 control), cis-inhibition, PfCRTDd2, SEM
[12] = read-out: [3H]CQ transport (% PfCRTDd2 control), cis-inhibition, PfCRTDd2, SEM
[13] = PfCRT3D7 oocytes, normalised to the oocyte type control, read-out: Uptake of [3H]CQ (% PfCRT3D7 control), cis-inhibition
[14] = mean ± SEM, SEM, read-out: Uptake of [3H]CQ (% PfCRTDd2 control), cis-inhibition, PfCRT3D7

N=C(N)NCCC[C@H](N)C(=O)O [L-arginine]
Compounds that have been tested as potential co-substrates but are not required for influx of VF-6 via PfCRT into the oocyte (PfCRT [1]): X
inhibition at 500 µM (PfCRT^Ecu1110 [2]; [5]): 98 ± 2.5%
inhibition at 1000 µM (PfCRT^Ecu1110 [2]; [5]): 95 ± 3.5%
inhibition at 2000 µM (PfCRT^Ecu1110 [2]; [5]): 99 ± 1.6%
inhibition at 500 µM (PfCRT^Ecu1110 [2]; [6]): 33 ± 2.4%
inhibition at 1000 µM (PfCRT^Ecu1110 [2]; [6]): 32 ± 1%
inhibition at 2000 µM (PfCRT^Ecu1110 [2]; [6]): 33 ± 1.4%
inhibition at 500 µM (PfCRT^Ecu1110 [2]; [7]): 100 ± 4.3%
inhibition at 1000 µM (PfCRT^Ecu1110 [2]; [7]): 97 ± 6.2%
inhibition at 2000 µM (PfCRT^Ecu1110 [2]; [7]): 101 ± 3.6%
inhibition at 500 µM (PfCRT^Ecu1110 [2]; [8]): 30 ± 0.6%
inhibition at 1000 µM (PfCRT^Ecu1110 [2]; [8]): 29 ± 0.4%
inhibition at 2000 µM (PfCRT^Ecu1110 [2]; [8]): 30 ± 0.5%
inhibition at 500 µM (PfCRT^Dd2; [9]): 99 ± 3.2%
inhibition at 1000 µM (PfCRT^Dd2; [9]): 99 ± 2.6%
inhibition at 2000 µM (PfCRT^Dd2; [9]): 95 ± 2.4%
inhibition at 500 µM (PfCRT^Dd2; [10]): 101 ± 4.8%
inhibition at 1000 µM (PfCRT^Dd2; [10]): 101 ± 5.8%
inhibition at 500 µM (PfCRT^Dd2; [11]): 101 ± 4.8%
inhibition at 1000 µM (PfCRT^Dd2; [11]): 101 ± 5.8%
inhibition at 2000 µM (PfCRT^Dd2; [11]): 98 ± 3.5%
inhibition at 500 µM (PfCRT^Dd2; [12]): 99 ± 3.2%
inhibition at 1000 µM (PfCRT^Dd2; [12]): 99 ± 2.6%
Tested as potential co-substrate but not required for influx of VF-6 via PfCRT into the oocyte (PfCRT [3]): X
inhibition at 500 µM (PfCRT^3D7; [13]): 100 ± 4.2%
inhibition at 1000 µM (PfCRT^3D7; [13]): 99 ± 5.7%
inhibition at 2000 µM (PfCRT^3D7; [13]): 100 ± 5.3%
inhibition at 500 µM (PfCRT^3D7; [14]): 2.4 ± 0.07%
inhibition at 1000 µM (PfCRT^3D7; [14]): 2.9 ± 0.05%
inhibition at 2000 µM (PfCRT^3D7; [14]): 3.3 ± 0.03%
activity at 5000 µM (PfCRT^Ecu1110 [4]): 98 ± 4.1%
